From patent publication US20250366472A1, “1-AMINOCYCLOPROPANE-1-CARBOXYLIC ACID OXIDASE INHIBITORS (ACO-I)” (Royal Holloway and Bedford New College, priority 2022, published 2025)
Where two headings read alike, the source gives them in different places.

Legend:
A. thaliana = A. thaliana root and hypocotyl extension after 6 days; assay type: in vivo; conditions: for effect on root and hypocotyl growth: FIG. 6A; for concentration from which dose dependent effect on root/hypocotyl growth is seen: versus DMSO control, FIG. 6B; for potency compared to AIB: hypocotyl or root extension, from table 3
Experimental: In these experiments, A. thaliana seeds were germinated and grown in 24 h light conditions for 6 days and root and hypocotyl length were recorded (FIG. 6A and 6B).
The IC50 values for the root or hypocotyl extension after 6 days for 5,5-dimethyl-2-(2-phenylacetyl) cyclohexane-1,3-dione (ACOi-84-16-4), 3-[(2E)-3-(4-fluorophenyl)prop-2-enoyl]-4-hydroxy-6-methyl-2H-pyran-2-one (ACOi-74-12-16) and MyA, compared to known compounds AIB and POA are presented in table 3. Images of the plant growth and the root hairs are shown in FIG. 6B for 5,5-dimethyl-2-(2-phenylacetyl) cyclohexane-1,3-dione (ACOi-84-16-4) and 3-[(2E)-3-(4-fluorophenyl)prop-2-enoyl]-4-hydroxy-6-methyl-2H-pyran-2-one (ACOi-74-12-16) and FIG. 6A for MyA and comparably for AIB and POA.

barley seedlings = experiment: Drought stress recovery of barley seedlings; assay type: in vivo; conditions: 5 days growth, 9 days drought, 12 days watered
Experimental: (§1) The seeds of each plant were washed with 5% sodium hypochlorite for 15 minutes (with shaking at 120 rpm) and then washed three times in sterile distilled water. The seeds were placed on two layers of waterlogged 3 MM for ˜72 hours under lights at RT until hypocotyl emerged. 7-10 germinated seeds were incubated in sterile Magenta boxes containing 100 mL perlite per box, moistened with 60 ml sterile distilled water and autoclaved. The seeds were incubated in a growth cabinet with a 12 hour light/dark cycle at 22° C. until the first seedling reached approximately 5 cm height. This took approximately 4-5 days. The water was then replaced with 0.5×Hoagland solution with the test compounds (or DMSO for control samples) for 24 hour (Hoagland's No2 Basal salt mixture, Sigma, H2395, use 1.6 g/L in sterile water and autoclaved), and returned to growth cabinet. The media was then removed, the perlite was rinsed twice with sterile distilled water and the solution was replace with 35 ml 0.5 ×Hoaglands solution and returned to the growth cabinet for 24 hours.
The no drought sample was then grown in 0.5×Hoaglands solution and the solution was topped up daily.
The drought samples were exposed to drought conditions for 9 days by removing the media and returned to the growth cabinet. At recovery, 0.5×Hoaglands solution was added back to the drought sample Magenta boxes, up to the top of the perlite and this level was maintained during recovery. The plant recovery over time (up to 19 days post rescue) was recorded and the photographs from the end of the experiment are illustrated in FIG. 8, FIG. 9 and FIG. 11.
10 μM of 3-[(2E)-3-(4-fluorophenyl)prop-2-enoyl]-4-hydroxy-6-methyl-2H-pyran-2-one (labelled as 16B), 10 μM of 5,5-dimethyl-2-(2-phenylacetyl) cyclohexane-1,3-dione (labelled as 4B) and […] of AIB and 500 μM of POA were tested on barley seedlings.

D. discoideum WT cells = experiment: D. discoideum multicellular development, block at mound stage; assay type: cell-based
Experimental: The effect of MyA on multicellular development of D. discoideum was measured. The MyA was tested at a concentration of 100 μM.
The effect of ACO loss on multicellular development was assessed. ACO-D. discoideum mutants were engineered and compared to standard wild type D. discoideum cells.

Carnations = experiment: Cut carnation flower senescence (flower size); assay type: in vivo; conditions: for slowing of flower senescence versus control: 0.01 mM or 0.02 mM, flower size after 9 days; for performance versus POA and AIB: 0.01/0.02 mM versus POA 0.5/1 mM, AIB 5/10 mM
Experimental: Carnations were cut to approximately 5 cm long stems and placed in a solution wherein the solution comprised 5 mL water and either no additional components (control), 0.01 mM or 0.02 mM of 5,5-dimethyl-2-(2-phenylacetyl) cyclohexane-1,3-dione (labelled as 4B) or 3-[(2E)-3-(4-fluorophenyl)prop-2-enoyl]-4-hydroxy-6-methyl-2H-pyran-2-one (labelled as 16B) or 0.5 mM or 1 mM of POA or 10 mM or 5mM of AIB were added. The flower size coverage was measured and the petal shrinkage, or reduction in flower size, is used as an indicator of flower senescence.

D. discoideum cells = experiment: Inhibition of D. discoideum unicellular growth (wild type); assay type: cell-based
Experimental: The unicellular growth rate and multicellular of D. discoideum cells on exposure to MyA was tested and the results are illustrated in FIG. 1 and FIG. 2.
D. discoideum cells were divided by binary fission in nutrient-rich media, initially with a lag phase (0-120 h), and then an exponential phase. The D. discoideum cells were then exposed to MyA at concentrations of 0 μm, 1 μm, 10 μm, 15 μm, 25 μm, 50 μm and 100 μm.

[1] = test system: ACO ablated D. discoideum cells (ACO-); experiment: Growth sensitivity of ACO-mutant D. discoideum cells to MyA; assay type: cell-based
Excerpt: The cell and developmental role of the D. discoideum ACO protein were investigated. FIG. 3C illustrates the resistance to the growth and developmental inhibitory effect of MyA on wild type D. discoideum cells (WT) and ACO ablated D. discoideum cells (ACO-).

[2] = test system: csA, cAR1, pspA, ecmA expression; experiment: Developmental gene expression in D. discoideum by qPCR; assay type: cell-based; conditions: 100 μM, 0 to 20 hours
Experimental: To provide quantitative analysis of the developmental effects of MyA, wild type cells were induced to develop on nitrocellulose filters for time periods between 0 and 20 hours, using cells under solvent only conditions, in the presence of MyA (100 μM), or in the presence of MyA and CEPA. Developmental gene expression associated with early aggregation (csA), […], and in late development (ecmA) were assessed using qPCR. […] Similar delays in peak gene expression were also seen for carA (peak 4 h), and pspA (peak 12 h), and ecmA (peak 20 h), following MyA treatment, and these delays were rescued by addition of exogenous ethylene. These experiments confirm a MyA-dependent delay in D. discoideum development that is rescued by exogenous ethylene application, consistent with a role for MyA in inhibiting ACO activity and slowing crop maturation.

ethylene production = experiment: Ethylene production of D. discoideum cells, headspace GCMS; assay type: cell-based; conditions: 500 μM
Experimental: Wild type cells in the presence or absence of MyA (500 μM), or ACO-cells were maintained in sealed small flasks with limited head space over 36 h, and headspace gas was taken at 6-hour intervals and analysed by GCMS.

wheat seedlings = experiment: Drought stress recovery of wheat seedlings; assay type: in vivo; conditions: 10 μM, 9 days drought, 19 days recovery
Experimental: as §1, with “The media was then removed, the perlite was rinsed twice with sterile distilled water and the solution was replace with 35 ml 0.5 ×Hoaglands solution and returned to the growth cabinet for 24 hours.” left out
The drought samples were exposed to drought conditions for 9 days by removing the media and returned to the growth cabinet. […] The plant recovery over time (up to 19 days post rescue) was recorded and the photographs from the end of the experiment are illustrated in FIG. 8, FIG. 9 and FIG. 11.
The drought testing was repeated with wheat seedlings and the results are shown in FIGS. 9 and 10 wherein the data was measured following 5 days of growth, 9 days of drought and 19 days of recovery. […]

rye seedlings = experiment: Drought stress recovery of rye seedlings; assay type: in vivo; conditions: 10 μM, 9 days drought
Experimental: as §1
The no drought sample was then grown in 0.5×Hoaglands solution and the solution was topped up daily. […]
The drought testing was repeated with rye seedlings and the results are shown in FIG. 11 wherein the data was measured following 5 days of growth, 9 days of drought and 19 days of recovery. […]

[3] = Hypocotyl, 6 days, read-out: IC50 hypocotyl extension
[4] = Arabidopsis thaliana, 144 h, Hypocotyl, 6 days, read-out: IC50 hypocotyl extension
[5] = Arabidopsis thaliana, 144 h, Root, 6 days, read-out: IC50 root extension

Compound | effect on root and hypocotyl growth (A. thaliana; 6 days) | IC50 (A. thaliana; [3]) [µM] | efficacy in development block model (D. discoideum WT cells; 100 μM) | concentration from which dose dependent effect on root/hypocotyl growth is seen (A. thaliana; 6 days) [μm] | IC50 (A. thaliana; [4]) [µM] | IC50 (A. thaliana; [5]) [µM] | potency compared to AIB (A. thaliana) | slowing of flower senescence versus control (Carnations) | performance versus POA and AIB (Carnations) | recovery after drought (barley seedlings; 10 μM) | further results
CC(C)(N)C(=O)O [AIB, a-aminoisobutyric acid, reference compound] | dose-dependent reduction | 4290 |  |  |  |  |  |  |  |  | IC50 (A. thaliana; Root, 6 days, read-out: IC50 root extension): 1620 µM; recovery after drought (barley seedlings; 2,000 μM): did slightly better; recovery after drought (barley seedlings; 10,000 μM): did better still
CC1(C)CC(=O)C(C(=O)Cc2ccccc2)C(=O)C1 [ACOi-84-16-4, 5,5-dimethyl-2-(2-phenylacetyl)cyclohexane-1,3-dione] |  |  | potent efficacy | 5 | 8.2 | 6.9 | over 5400 fold | significant effect | comparable performance | comparable growth to the same treated with 10,000 μM AIB | 
CC1C(=O)C(C(=O)CCc2ccccc2)C(=O)C(C)(C)C1=O (centres unmarked) [MyA, 2,2,4-trimethyl-6-(3-phenylpropanoyl) cyclohexane-1,3,5-trione] | comparative reduction |  |  |  | 59.4 | 53.3 |  |  |  |  | effect on unicellular growth (D. discoideum cells; 10 μM, P<0.05): significant reduction; effect on unicellular growth (D. discoideum cells; 100 μM): block in growth; IC50 (D. discoideum cells; Dictyostelium discoideum, wild type D. discoideum, secondary plot of normalised growth rate): 7.6 µM; reduction in potency in the ACO-mutant versus wild type [1]: four-fold; IC50 ([1]; Dictyostelium discoideum, ACO- D. discoideum cells): 29.9 µM; effect on multicellular development (D. discoideum WT cells; 100 μM, 24 hours): later stages of development were delayed; development after extended incubation (D. discoideum WT cells; 100 μM, 36 hours): developed into fully mature fruiting bodies; lethality of high dose (D. discoideum WT cells; 100 μM, 36 hours): not lethal; rescue of developmental delay by exogenous ethylene (CEPA) (D. discoideum WT cells; MyA 100 μM plus CEPA): partially rescued; peak expression of developmental genes (csA, carA, pspA, ecmA) [2]: delayed; decrease in ethylene production (ethylene production; 12 hours, P=0.031): 39.5%; decrease in ethylene production (ethylene production; 36 hours, P=0.0025): 37.9%; lowest concentration shown to have an effect on growth (A. thaliana; root and hypocotyl, 6 days, 24 h light): 0.025 mM; lowest effective concentration, times lower than AIB (A. thaliana; versus AIB): 20 times; lowest effective concentration, times lower than POA (A. thaliana; versus POA): 4 times
O=C(O)c1cnccn1 [POA, pyrazinecarboxylic acid, reference compound] | dose-dependent reduction | 184 |  |  |  | 213 |  |  |  |  | recovery after drought (barley seedlings; 500 μM): did not show positive result
Cc1cc(O)c(C(=O)/C=C/c2ccc(F)cc2)c(=O)o1 [ACOi-74-12-16, 3-[(2E)-3-(4-fluorophenyl)prop-2-enoyl]-4-hydroxy-6-methyl-2H-pyran-2-one] |  |  | potent efficacy | 5 | 0.79 | 1.02 | 1580 fold | significant effect | comparable performance | comparable seedling height to the control sample which had been watered throughout the duration | recovery after drought versus untreated drought control (wheat seedlings): improved recovery; seedling height and mass versus drought control (wheat seedlings; FIG. 10): increased height and mass; recovery after drought versus untreated drought control (rye seedlings; 19 days recovery): improved recovery; recovery after drought (rye seedlings; 23 days recovery): continues to recover
